In patent US11464227B2, “Enhanced microbial and biorational control of nematode pests of plants” (ADVANCED BIOLOGICAL MARKETING, INC., priority 2017, dated 2022):

Test system: plant
Experiment: Plant growth and disease resistance induction by Trichoderma metabolite
Assay type: in vivo
Conditions: at very low concentrations
Description: These endophytic microorganisms frequently are fully symbiotic with plants (Harman, Howell, et al., 2004). These endophytic symbionts have abilities to induce multiple beneficial effects in plants, including induced resistance to diseases and potentially other pests; resistance to abiotic stresses such as drought, salt and flooding; improved efficiency of uses of nitrogen and other plant nutrients; enhancement of seed germination and seedling vigor; and enhanced plant growth and development. There are numerous diverse genera of microbes that induce at least most of these changes in plant performance, including mycorrhizae, plant growth promoting rhizobacteria, and Basidomycetous fungi in the Sebaciles such as Piriformaspora indica. These organisms have an endophytic versus a plant pathogenic life style (Shoresh, Mastouri, et al., 2010) typical of numerous other plant-associated microorganisms. The systemic changes in plant gene expression are presumed to be induced by the production of specific triggering metabolites from these different organisms. […] (Cawoy, Mariutto, et al., 2014, Debois, Fernandez, et al., 2015), and hydrophobic proteins (Djonovic, Vargas, et al., 2007, Ruoccco, Lanzuise, et al., 2015) and volatile and nonvolatile metabolites from Trichoderma […], et al., 2008).

## C=CC(O)CCCCC (centres unmarked) [1-octene-3-ol]
  induction of plant disease resistance: highly effective
  plant growth: strongly enhances
